Measured values taken from patent US20140011799A1 (Bristol-Myers Squibb Company, priority 2012, published 2014).
pIC50: −log10 of the molar value. Values joined by “and” are separate entries in the source; they are usually repeats but may differ in a detail not shown here. Equal entries are not always repeated.

Columns and labels:
Endothelial lipase (EL) = molecular target: T1, Endothelial lipase (EL) (Homo sapiens, UniProt Q9Y5X9); test: Endothelial lipase (EL) enzymatic assay, fluorescent substrate A10070 in DMPG vesicles; type: biochemical; settings: EL from conditioned media of HT-1080 cells; compound preincubated 30 min at 37° C; read-out: EL IC50
T1 construct: HT-1080 cells that were transformed using RAGE technology (Athersys) to overexpress endogenous EL; endogenous in cells; conditioned medium used
T1 sequence (Q9Y5X9 21-500): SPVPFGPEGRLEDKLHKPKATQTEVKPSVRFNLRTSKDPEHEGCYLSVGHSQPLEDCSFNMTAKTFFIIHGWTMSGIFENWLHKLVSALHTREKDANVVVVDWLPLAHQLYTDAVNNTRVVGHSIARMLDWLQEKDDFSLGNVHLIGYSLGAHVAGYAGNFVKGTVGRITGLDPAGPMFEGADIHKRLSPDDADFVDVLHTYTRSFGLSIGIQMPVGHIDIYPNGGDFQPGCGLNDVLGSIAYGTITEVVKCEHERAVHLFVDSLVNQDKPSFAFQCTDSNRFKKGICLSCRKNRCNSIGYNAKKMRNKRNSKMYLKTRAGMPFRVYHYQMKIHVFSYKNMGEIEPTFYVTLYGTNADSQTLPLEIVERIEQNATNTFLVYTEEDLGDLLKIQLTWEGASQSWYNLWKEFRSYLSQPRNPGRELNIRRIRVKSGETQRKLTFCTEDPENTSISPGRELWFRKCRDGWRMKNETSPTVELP
In short: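 EL from conditioned medium of HT-1080 cells engineered to overexpress endogenous EL; HL partially purified from conditioned medium of HL-overexpressing COS cells. Enzyme preincubated with compound 30 min at 37° C in 50 mM HEPES pH 8.0, 50 mM NaCl, 1 mM CaCl2; DMPG vesicles carrying FRET substrate (0.11 mole fraction) then added.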

hepatic lipase (HL) = molecular target: T2, hepatic lipase (HL) (Homo sapiens, UniProt P11150); test: Hepatic lipase (HL) enzymatic assay, fluorescent substrate A10070 in DMPG vesicles; type: biochemical; settings: HL partially purified from conditioned media of COS cells; compound preincubated 30 min at 37° C; read-out: HL IC50
T2 construct: made in house; host or cells: COS cells (conditioned medium, partially purified)
T2 sequence (P11150 23-499): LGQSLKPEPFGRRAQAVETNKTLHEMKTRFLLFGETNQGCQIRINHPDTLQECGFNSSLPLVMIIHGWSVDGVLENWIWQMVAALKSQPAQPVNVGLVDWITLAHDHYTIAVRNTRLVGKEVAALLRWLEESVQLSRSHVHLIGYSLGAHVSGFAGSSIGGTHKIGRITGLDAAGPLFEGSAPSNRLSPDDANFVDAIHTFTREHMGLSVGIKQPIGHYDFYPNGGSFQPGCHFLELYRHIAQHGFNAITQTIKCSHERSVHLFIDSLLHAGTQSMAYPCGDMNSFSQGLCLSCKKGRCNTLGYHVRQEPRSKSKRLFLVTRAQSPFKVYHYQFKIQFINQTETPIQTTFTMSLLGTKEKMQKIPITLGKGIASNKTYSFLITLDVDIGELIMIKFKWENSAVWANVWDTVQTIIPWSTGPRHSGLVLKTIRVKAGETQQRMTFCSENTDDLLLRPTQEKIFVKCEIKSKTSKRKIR
Procedure: Endothelial lipase (EL) and hepatic lipase (HL) activities were measured using a fluorescent substrate, A10070, (Invitrogen, CA) doped into an artificial vesicle containing DMPG (Avanti Polar Lipids) as the excipient. Vesicles were prepared by combining 571 μL of 29 mM DMPG in a 1:1 mixture of MeOH and CHCl3 with 2000 μL of 1 mM A10070 in a 1:1 mixture of MeOH and CHCl3. The mixture was dried under nitrogen in multiple vials then resuspended in 20 mL total volume of 50 mM HEPES pH 8.0 buffer containing 50 mM NaCl and 0.2 mM EDTA. The sample was allowed to sit at room temperature for 15 min and then was sonicated 3×4 mins on ice with a Branson Sonicator using duty cycle 1. This preparation provides vesicles with a mole fraction of 0.11 for the FRET substrate.
The enzymatic assay was measured using 384-well white Optiplates. Each well contained 20 μL of assay buffer (50 mM HEPES pH 8.0, 50 mM NaCl and 1 mM CaCl2) and 0.25 μL of a DMSO solution containing a compound of interest. EL or HL (10 μL) was added and allowed to incubate with the compound for 30 min at 37° C. The source of EL was conditioned media obtained from HT-1080 cells that were transformed using RAGE technology (Athersys) to overexpress endogenous EL, and HL was partially purified from conditioned media obtained from COS cells overexpressing HL. The reaction was started by the addition of 10 μL of a 1:10 dilution of vesicles. The final total reaction volume was […]. The reaction rates were measured on a Gemini plate reader with an excitation wavelength of 490 nm and an emission wavelength of 530 nm. Readings were taken over a period of 60 minutes, and the slope between 300 and 900 secs of the readout was used to calculate the rate of the reaction.

## NS(=O)(=O)NCc1nnc(C(c2nc3ccc(-c4cccc(C(=O)NCC(F)(F)F)c4)cc3s2)S(=O)(=O)CCC(F)(F)F)o1 (stereo not shown) [Example 195, 3-(2-((5-((sulfamoylamino)methyl)-1,3,4-oxadiazol-2-yl)((3,3,3-trifluoropropyl)sulfonyl)methyl)-1,3-benzothiazol-6-yl)-N-(2,2,2-trifluoroethyl)benzamide]
Endothelial lipase (EL)
  pIC50: > 8.00
Hepatic lipase (HL)
  pIC50: 6.47

## CS(=O)(=O)C(c1nnc(CC2SC(=O)NC2=O)o1)c1nc2ccc(-c3ccnc(C#N)c3)cc2s1 (stereo not shown) [Example 103, 4-(2-((5-((2,4-dioxo-1,3-thiazolidin-5-yl)methyl)-1,3,4-oxadiazol-2-yl)(methylsulfonyl)methyl)-1,3-benzothiazol-6-yl)-2-pyridinecarbonitrile]
Endothelial lipase (EL)
  pIC50: > 8.00
Hepatic lipase (HL)
  pIC50: > 8.00 and 7.44

## CC(C)CN(C)C(=O)c1cccc(-c2ccc3nc(C(c4nnc(CC5(C)NC(=O)NC5=O)o4)S(C)(=O)=O)sc3c2)c1 (stereo not shown) [Example 226, 3-{2-[methanesulfonyl({5-[(4-methyl-2,5-dioxo-imidazolidin-4-yl)methyl]-1,3,4-oxadiazol-2-yl})methyl]-1,3-benzothiazol-6-yl}-N-methyl-N-(2-methylpropyl)benzamide]
Endothelial lipase (EL)
  pIC50: 7.46
Hepatic lipase (HL)
  pIC50: 7.28

## Cc1cc(-c2ccc3nc(C(c4nnc(CNS(N)(=O)=O)o4)S(C)(=O)=O)sc3c2)n(C)n1 (stereo not shown) [Example 118, N-[(5-{[6-(1,3-dimethyl-1H-pyrazol-5-yl)-1,3-benzothiazol-2-yl](methylsulfonyl)methyl}-1,3,4-oxadiazol-2-yl)methy] sulfuric diamide]
Endothelial lipase (EL)
  pIC50: 7.74
Hepatic lipase (HL)
  pIC50: 6.40

## NS(=O)(=O)NCc1nnc(C(c2nc3ccc(-c4ccc(C(=O)N5CCOCC5)c(Cl)c4)cc3s2)S(=O)(=O)Cc2ccccc2)o1 (stereo not shown) [Example 149, N-((5-((benzylsulfonyl)(6-(3-chloro-4-(4-morpholinylcarbonyl)phenyl)-1,3-benzothiazol-2-yl)methyl)-1,3,4-oxadiazol-2-yl)methyl)sulfamide]
Endothelial lipase (EL)
  pIC50: > 8.00
Hepatic lipase (HL)
  pIC50: 6.92

## Cn1cc(-c2ccc3nc(C(c4nnc(CNC(=O)OC(C)(C)C)o4)S(C)(=O)=O)sc3c2)cn1 (stereo not shown) [Example 98, tert-butyl ((5-((6-(1-methyl-1H-pyrazol-4-yl)-1,3-benzothiazol-2-yl)(methylsulfonyl)methyl)-1,3,4-oxadiazol-2-yl)methyl) carbamate]
Endothelial lipase (EL)
  pIC50: 6.77
Hepatic lipase (HL)
  pIC50: < 4.60

## COC(=O)CCS(=O)(=O)C(c1nnc(CNS(N)(=O)=O)o1)c1nc2ccc(-c3cnn(C)c3)cc2s1 (stereo not shown) [Example 112, methyl 3-(((6-(1-methyl-1H-pyrazol-4-yl)-1,3-benzothiazol-2-yl)(5-((sulfamoylamino)methyl)-1,3,4-oxadiazol-2-yl)methyl)sulfonyl)propanoate]
Endothelial lipase (EL)
  pIC50: > 8.00
Hepatic lipase (HL)
  pIC50: > 8.00

## CS(=O)(=O)C(c1nnc(CNS(N)(=O)=O)o1)c1nc2ccc(-c3cccc(C(=O)Nc4cccnc4)c3)cc2s1 (stereo not shown) [Example 263, 3-{2-[methanesulfonyl({5-[(sulfamoylamino)methyl]-1,3,4-oxadiazol-2-yl})methyl]-1,3-benzothiazol-6-yl}-N-(pyridin-3-yl) benzamide]
Endothelial lipase (EL)
  pIC50: 8.40
Hepatic lipase (HL)
  pIC50: 7.59

## COCc1ccc(-c2ccc3nc(C(c4nnc(CNS(N)(=O)=O)o4)S(=O)(=O)Cc4cc(Cl)cc(Cl)c4)sc3c2)cc1 (stereo not shown) [Example 235, N-({5-[(3,5-dichlorophenyl)methanesulfonyl({6-[4-(methoxymethyl)phenyl]-1,3-benzothiazol-2-yl})methyl]-1,3,4-oxadiazol-2-yl}methyl)aminosulfonamide]
Endothelial lipase (EL)
  pIC50: 8.40
Hepatic lipase (HL)
  pIC50: 8.22

## CC(C)(C)OC(=O)NS(=O)(=O)NCc1nnc(C(c2nc3ccc(-c4ccc(C(=O)N5CCOCC5)c(Cl)c4)cc3s2)S(=O)(=O)Cc2ccccc2)o1 (stereo not shown) [Example 147, 2-methyl-2-propanyl [({5-[(benzylsulfonyl){6-[3-chloro-4-(4-morpholinylcarbonyl)phenyl]-1,3-benzothiazol-2-yl}methyl]-1,3,4-oxadiazol-2-yl}methyl)sulfamoyl] carbamate]
Endothelial lipase (EL)
  pIC50: 7.77
Hepatic lipase (HL)
  pIC50: 6.20

## CS(=O)(=O)C(c1nnc(CNS(N)(=O)=O)o1)c1nc2ccc(-c3ccc(C(=O)N4CCOCC4)cc3)cc2s1 (stereo not shown) [Example 130, N-((5-((methylsulfonyl)(6-(4-(4-morpholinylcarbonyl)phenyl)-1,3-benzothiazol-2-yl)methyl)-1,3,4-oxadiazol-2-yl)methyl)sulfamide]
Endothelial lipase (EL)
  pIC50: > 8.00
Hepatic lipase (HL)
  pIC50: 7.66

## CC1(Cc2nnc(C(c3nc4ccc(-c5cccc(C(=O)N6CC(F)(F)C6)c5)cc4s3)S(C)(=O)=O)o2)NC(=O)NC1=O (stereo not shown) [Example 208, 5-{[5-({6-[3-(3,3-difluoroazetidine-1-carbonyl)phenyl]-1,3-benzothiazol-2-yl} (methanesulfonyl)methyl)-1,3,4-oxadiazol-2-yl]methyl}-5-methyl-imidazolidine-2,4-dione]
Endothelial lipase (EL)
  pIC50: 6.75
Hepatic lipase (HL)
  pIC50: 6.88

## CS(=O)(=O)C(c1nnc(CC2SC(=O)NC2=O)o1)c1nc2ccc(-c3ccc(=O)n(Cc4ccccc4)c3)cc2s1 (stereo not shown) [Example 101, 5-((5-((6-(1-benzyl-6-oxo-1,6-dihydro-3-pyridinyl)-1,3-benzothiazol-2-yl)(methylsulfonyl)methyl)-1,3,4-oxadiazol-2-yl)methyl)-1,3-thiazolidine-2,4-dione]
Endothelial lipase (EL)
  pIC50: > 8.00
Hepatic lipase (HL)
  pIC50: 6.80

## CS(=O)(=O)NCc1nnc(C(c2nc3ccc(-c4ccc(C(=O)N5CCOCC5)cc4)cc3s2)S(C)(=O)=O)o1 (stereo not shown) [Example 173, N-((5-((Methylsulfonyl)(6-(4-(4-morpholinylcarbonyl)phenyl)-1,3-benzothiazol-2-yl)methyl)-1,3,4-oxadiazol-2-yl)methyl)methanesulfonamide]
Endothelial lipase (EL)
  pIC50: 7.46
Hepatic lipase (HL)
  pIC50: 7.24

## CS(=O)(=O)C(c1nnc(C[C@H]2NS(=O)(=O)NC2=O)o1)c1nc2ccc(-c3ccc(C(=O)N4CCOCC4)cc3)cc2s1 (stereo partly drawn) [Example 110, (4R)-4-((5-((methylsulfonyl) (6-(4-(4-morpholinylcarbonyl)phenyl)-1,3-benzothiazol-2-yl)methyl)-1,3,4-oxadiazol-2-yl)methyl)-1,2,5-thiadiazolidin-3-one 1,1-dioxide]
Endothelial lipase (EL)
  pIC50: 7.72
Hepatic lipase (HL)
  pIC50: 5.49

## CC(C)Cn1cc(-c2ccc3nc(C(c4nnc(CNS(N)(=O)=O)o4)S(=O)(=O)Cc4ccccc4)sc3c2)cn1 (stereo not shown) [Example 136, N-((5-((benzylsulfonyl)(6-(1-isobutyl-1H-pyrazol-4-yl)-1,3-benzothiazol-2-yl)methyl)-1,3,4-oxadiazol-2-yl)methyl)sulfamide]
Endothelial lipase (EL)
  pIC50: > 8.00
Hepatic lipase (HL)
  pIC50: > 8.00

## CS(=O)(=O)C(c1nnc(C[C@@H]2NS(=O)(=O)NC2=O)o1)c1nc2cc(F)c(-c3ccccc3)cc2s1 (stereo partly drawn) [Example 168, (4S)-4-((5-((5-fluoro-6-phenyl-1,3-benzothiazol-2-yl)(methylsulfonyl)methyl)-1,3,4-oxadiazol-2-yl)methyl)-1,2,5-thiadiazolidin-3-one 1,1-dioxide]
Endothelial lipase (EL)
  pIC50: > 8.00
Hepatic lipase (HL)
  pIC50: 7.72
